Earlier results in PMC11614538, “The proline-rich antimicrobial peptide B7-005: low bacterial resistance, safe for human cells and effective in zebrafish embryo bacteraemia model” (Open Biology, 2024).
Residues, ends and D or L forms follow the SMILES beside them.

Conditions: ref [20]; cited from earlier work
Excerpt: The bioavailability in human serum of a peptide intended for clinical systemic use is a critical parameter for the success of peptide-based drugs. […] However, irreversible sequestration of the peptide by serum proteins at higher serum concentrations could also impair its antimicrobial activity. To check if the peptide maintained its availability under conditions closer to the clinical o ...

CC[C@H](C)[C@H](NC(=O)[C@H](CCCNC(=N)N)NC(=O)[C@@H](N)Cc1c[nH]c2ccccc12)C(=O)N[C@@H](CCCNC(=N)N)C(=O)N[C@@H](CCCNC(=N)N)C(=O)N[C@@H](CCCNC(=N)N)C(=O)N[C@@H](Cc1c[nH]c2ccccc12)C(=O)N1CCC[C@H]1C(=O)N[C@@H](CCCNC(=N)N)C(=O)N[C@@H](CC(C)C)C(=O)N1CCC[C@H]1C(=O)N[C@@H](CCCNC(=N)N)C(=O)N1CCC[C@H]1C(=O)N[C@@H](CCCNC(=N)N)C(=O)N[C@@H](Cc1c[nH]c2ccccc12)C(=O)N[C@@H](CCCNC(=N)N)C(=O)O [B7-005] (H-WRIRRRWPRLPRPRWR-OH)
proteolytic degradation by serum proteases: excluded rapid proteolytic degradation
